The source of these data is patent publication US20220031901A1, “FRAGRANCE COMPOSITION” (Takasago International Corporation, priority 2020, published 2022).

Test [1] in a line: Sensory evaluation of unpleasant odor suppression ability of Group A. To be noted: for Indole strength / Skatole strength: average of 20 panelists, scale 0 (not smelled) to 10 (very strongly), unpleasant odor alone = 8, 1 hour; for Indole strength: 10 μL indole diluted 100-fold + 1 μL test substance; for Skatole strength: 10 μL skatole diluted 100-fold + 1 μL test substance; for Effect of suppressing the unpleasant odors (skatole, indole): sensory evaluation, result in words. Details: species or system human. The procedure: The unpleasant odor suppression ability of test substances having activity to inhibit receptor action was confirmed by sensory evaluation. A cotton ball on which 10 μL of skatole or indole diluted 100-fold with triethyl citrate as an unpleasant odor and 1 μL of a test substance were dropped was put into a plastic bottle (OZO-40 manufactured by Takemoto Yohki Co., Ltd.). The bottle was allowed to stand at room temperature for 1 hour to sufficiently volatilize odor molecules therein. The sensory evaluation test was conducted by a panel consisting of 20 persons, who made evaluation as follows: the odor strength in the case where the unpleasant odor was dropped solely was rated as 8, and the unpleasant odor strength in the case where the test substance was mixed was rated as from 0 (the unpleasant odor is not smelled) to 10 (the unpleasant odor is smelled very strongly). The average value was calculated from obtained numerical values.

Test [2] is described as follows: Sensory evaluation of ability to suppress model fecal odor by fragrance compositions. More on the design: species or system human. To be noted: substance blended in the fragrance composition (floral-fruity base); result in words. The procedure:
Fragrance compositions of Fragrance 1 to Fragrance 41 were prepared according to the formulations in Tables 2-6 below. DPG in the tables means dipropylene glycol. […] Note that the way of dividing the group and the ratio in the group are optional and not limited by Table 7. The floral-fruity base in Tables 2-6 was prepared according to Table 8.
Regarding these fragrance compositions, the ability to suppress the unpleasant odor was confirmed by means of sensory evaluation. As the unpleasant odor, a model fecal odor containing skatole, indole, butyric acid, p-cresol and dimethyl trisulfide (Lin et al., Environ. Sci. Technol., 2013, 47(14), pp. 7876-7882) was diluted 100-fold, and 10 μL thereof was dropped on a cotton ball, and as a test substance, 1 μL of one of Fragrance 1 to Fragrance 41 was dropped on the cotton ball. Then the cotton ball was put into a plastic bottle (OZO-40 manufactured by Takemoto Yohki Co., Ltd.). The bottle was allowed to stand at room temperature for 1 hour to sufficiently volatilize odor molecules therein. The sensory evaluation test was conducted by a panel consisting of 20 persons, who made evaluation as follows: the unpleasantness in the case where the unpleasant odor was dropped solely was rated as −3, and the unpleasantness in the case where the test substance was mixed was rated as from −4 (extremely unpleasant) to +4 (extremely pleasant). The average value was calculated from obtained numerical values.

Test [3] addresses T1, olfactory receptor OR2L3 (Homo sapiens, UniProt Q8NG85).
T1 construct: N-terminal 20 amino acid residues of bovine rhodopsin (Rho tag); expressed in transfected cells; host or cells: HEK293T
T1 sequence (Q8NG85 1-312): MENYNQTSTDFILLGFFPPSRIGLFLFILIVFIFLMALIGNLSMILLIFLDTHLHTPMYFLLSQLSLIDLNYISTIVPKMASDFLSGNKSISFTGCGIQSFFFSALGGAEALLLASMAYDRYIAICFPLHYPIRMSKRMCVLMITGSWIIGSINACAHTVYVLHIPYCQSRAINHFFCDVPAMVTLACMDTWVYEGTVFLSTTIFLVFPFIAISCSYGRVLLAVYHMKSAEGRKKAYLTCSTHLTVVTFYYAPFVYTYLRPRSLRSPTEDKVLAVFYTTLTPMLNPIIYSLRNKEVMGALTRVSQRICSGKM
Description: Response of olfactory receptor OR2L3 to unpleasant odor-causing substance (luciferase reporter gene assay). Format: cell-based. Conditions: various concentrations, stimulation 3 hours, HEK293T cells expressing OR2L3; FIGS. 1 to 5. The procedure: (§1) A human olfactory receptor gene was obtained by cloning according to the PCR method using Human Genomic DNA: Female (Promega) based on the sequence information registered in GenBank. The N-terminal 20 amino acid residues of bovine rhodopsin were incorporated into a pME18S vector, and the obtained human olfactory receptor gene was further incorporated downstream thereof, thereby obtaining a human olfactory receptor gene expression vector.
(§2) 0.05 μg of the human olfactory receptor gene expression vector, 0.01 μg of an RTP1S vector, 0.01 μg of a firefly luciferase vector pGL4.29 containing a cAMP-responsive sequence promoter (Promega), and 0.005 μg of a Renilla luciferase vector pGL4.74 containing a thymidine kinase promoter (Promega) were dissolved in 10 μL of Opti-MEM I (gibco) to obtain a gene solution (for one well). 100 μL of HEK293T cells were seeded in each well of a 96-well plate (Biocoat manufactured by Corning) so as to reach confluency after 24 hours. According to the directions for use of Lipofectamine 3000, by the lipofection method, the gene solution was added to each well to perform gene transfer to cells, and culturing was performed under 5% carbon dioxide atmosphere at 37° C. for 24 hours.
(§3) After removing the culture medium, 50 μL of CD293 medium (gibco) (20 μM L-glutamine added) including measured concentration of an aroma compound as a sample was added to each well, and stimulation was performed for 3 hours. After that, the luciferase activity was measured according to the directions for use of Dual-Luciferase Reporter Assay System (Promega). The response strength of the olfactory receptor was expressed by the Fold Increase value, which is obtained by dividing the luciferase activity generated by stimulation of the aroma compound by the luciferase activity generated in the test system not including the aroma compound.
Responses of the olfactory receptor OR2L3 to skatole, indole, α-terpineol, 4-terpineol or p-methylacetophenone as a typical example of the unpleasant odor-causing substance were measured with various concentrations by means of luciferase reporter gene assay. […] Meanwhile, in the Mock test (using cells in which OR2L3 was not expressed), no response was shown. That is, it was shown that OR2L3 specifically responds to the respective unpleasant odor-causing substances.
(In general: A reporter such as luciferase makes a cellular process visible.)

Test [4] deals with T1, olfactory receptor OR2L3. Description: Effect of suppressing the response of OR2L3 to unpleasant odor (luciferase reporter gene assay). Format: cell-based. To be noted: for Effect of suppressing the response of OR2L3 to skatole: test substance mixed with skatole, ratio of Fold Increase value, FIGS. 6 to 8; for Effect of suppressing the response of OR2L3 to indole: test substance mixed with indole, FIGS. 9 to 11. The procedure: as §1, §2, §3
With respect to Group A, the effect of suppressing the response of OR2L3 that strongly responded to unpleasant odors was measured by means of luciferase reporter gene assay. In luciferase reporter gene assay, skatole and Guava coeur (registered trademark) were used by being mixed with a sample. The Fold Increase value in the test in which Guava coeur was not mixed was regarded as 1, and the ratio of the Fold Increase value in the test in which Guava coeur was mixed was obtained.
Guava coeur in the evaluation of the effect of suppressing the response of OR2L3 was replaced by Dextramber (registered trademark), and the test was conducted in the same manner. […] Similarly, Guava coeur was replaced by Hindinol (registered trademark) and the test was conducted.
Regarding the unpleasant odor in the evaluation of the effect of suppressing the response of OR2L3, skatole was replaced by indole, and the test was conducted in the same manner.
In the evaluation of the effect of suppressing the response of OR2L3, the test was further conducted using combinations in which Guava coeur was replaced by another material of Group A and the skatole as the unpleasant odor was replaced by α-terpineol, 4-terpineol or p-methylacetophenone.

With `O=C1CCCC=CCCCCCCCCCC1` [Ambretone, 5-cyclohexadecenone], in test [1], the Indole strength was found to be 3.6; the Skatole strength stood at 4.2; the “Effect of suppressing the unpleasant odors (skatole, indole)” value (“Effect … (skatole, indole)” below) is recorded as “suppress the unpleasant odors”. Besides, in test [2], the “Suppression of the unpleasantness of the model fecal odor” value (“Suppression” for short) is given as “suppress the unpleasantness”.
Take `c1ccc2[nH]ccc2c1` [indole]: on olfactory receptor OR2L3 [3], the “Response of the olfactory receptor OR2L3 (Fold Increase value)” value (“Response … (Fold Increase value)” below) is “concentration-dependent responses”.
For the compound `CCCCCCOC(=O)c1ccccc1O` [Hexyl salicylate, hexyl salicylate, reference compound], the “Effect of suppressing the response of OR2L3 to skatole” value (from here on “Effect … to skatole”) at olfactory receptor OR2L3 [4] is reported as “did not suppress”. In addition, in test [1], the Indole strength is on record as 6.7 and the Skatole strength is 6.9.
Regarding `CC(=CCC1CC=C(C)C1(C)C)CO` (stereo not shown) [Hindinol, 2-methyl-4-(2,2,3-trimethyl-3-cyclopentenyl)-2-buten-1-ol], at olfactory receptor OR2L3 [4], the “Effect of suppressing the response of OR2L3 to indole” value (from here on “Effect … to indole”) was “concentration-dependently reducing the response” and the “Effect … to skatole” value is “concentration-dependently reducing the response”. Further, in test [1], the Indole strength was 4.1; the Skatole strength was found to be 3.6; the “Effect … (skatole, indole)” value was “suppress the unpleasant odors”. The “Suppression” value in test [2] was “suppress the unpleasantness”.
For the compound `Cc1c[nH]c2ccccc12` [skatole], the “Response … (Fold Increase value)” value on olfactory receptor OR2L3 [3] is “concentration-dependent responses”.
Take `CC(c1ccccc1)C1CC1C(C)(C)O` (stereo not shown) [Pamplefix, dimethyl-2-(1-phenylethyl)cyclopropylmethanol]: in test [1], the Indole strength came out at 2.4; the Skatole strength came to 2.5; the “Effect … (skatole, indole)” value is given as “suppress the unpleasant odors”. In addition, the “Suppression” value in test [2] was “suppress the unpleasantness”.
Take `CC1=CCC(C(C)(C)O)CC1` (stereo not drawn) [α-terpineol]: the “Response … (Fold Increase value)” value on olfactory receptor OR2L3 [3] is listed as “concentration-dependent responses”.
For the compound `CCOC(=O)C(C)C(C)S` (stereo not shown) [Guava coeur, ethyl 3-mercapto-2-methylbutyrate], at olfactory receptor OR2L3 [4], the “Effect … to indole” value is “concentration-dependently reducing the response” and the “Effect … to skatole” value is recorded as “concentration-dependently reducing the response”. In test [1], the Indole strength is listed as 3.3; the Skatole strength amounted to 3.0; the “Effect … (skatole, indole)” value is recorded as “suppress the unpleasant odors”. Moreover, the “Suppression” value in test [2] is on record as “suppress the unpleasantness”.
Take `CC(=O)c1ccc(C)cc1` [p-methylacetophenone]: on olfactory receptor OR2L3 [3], the “Response … (Fold Increase value)” value is “concentration-dependent responses”.
For `CC1=CCC(O)(C(C)C)CC1` (stereo not shown) [Fragrance 4-terpineol, 4-terpineol], the “Response … (Fold Increase value)” value at olfactory receptor OR2L3 [3] was “concentration-dependent responses”.
With `CC(C)(C)C1CCC(O)CC1` (stereo not shown) [4-t-butylcyclohexanol, reference compound], on olfactory receptor OR2L3 [4], the “Effect … to skatole” value is reported as “did not suppress”. In addition, in test [1], the Indole strength is listed as 6.0 and the Skatole strength is 6.3.
On to `CCCC(O)CCC1C(C)CCCC1(C)C` (stereo not shown) [Dextramber, 1-(2,2,6-trimethylcyclohexyl)hexan-3-ol], for which, on olfactory receptor OR2L3 [4], the “Effect … to indole” value is “concentration-dependently reducing the response” and the “Effect … to skatole” value is recorded as “concentration-dependently reducing the response”. In test [1], the Indole strength worked out at 3.9; the Skatole strength came out at 4.0; the “Effect … (skatole, indole)” value is on record as “suppress the unpleasant odors”. Also, the “Suppression” value in test [2] is given as “suppress the unpleasantness”.
In the case of methyl fenchol [Humus Ether], the “Effect … to skatole” value on olfactory receptor OR2L3 [4] was “suppresses”. In test [2], the “Suppression” value is “suppressed the unpleasantness”.
Turning to `CC1CCC(C(C)(C)S)C(=O)C1` (stereo not shown) [Ringonol, p-mentha-8-thiol-3-one], in test [1], the Indole strength came to 3.7; the Skatole strength is 3.9; the “Effect … (skatole, indole)” value is on record as “suppress the unpleasant odors”. Besides, the “Suppression” value in test [2] was “suppress the unpleasantness”.
